Measured values as given in US20230190743A1, “TREATMENT WITH ILEAL BILE ACID TRANSPORTER (IBAT) INHIBITORS FOR INCREASED EVENT-FREE SURVIVAL (EFS)” (Mirum Pharmaceuticals, Inc., priority 2021, published 2023).

Tests used:
Assay type in all cases: in vivo, human
[1] = system: patients with Alagille syndrome (ALGS); test: 6-year event-free survival analysis, maralixibat cohort versus GALA control group
From the text: Real-world evidence (RWE) analytics continue to advance natural history comparisons in rare diseases. GALA is the largest global clinical research database for […] syndrome (ALGS). Maralixibat (MRX) is an ileal bile acid transporter inhibitor being studied in ALGS. A pre-specified analysis plan applied novel analytical techniques to compare RWE to a MRX cohort with the aim to compare event-free survival (EFS) in patients with ALGS. GALA contains retrospective data for clinical parameters, biochemistries and outcomes. The MRX database comprises of 84 ALGS patients with up to 6 years of data. EFS was defined as the time to first event of hepatic decompensation (variceal bleeding, ascites requiring therapy), surgical biliary diversion, liver transplantation (LT), or death. GALA was filtered to align key MRX eligibility criteria. The index time was determined via maximum likelihood estimation. Balance among baseline (BL) variables was assessed. Selection of patients and index time was blinded to clinical outcomes. Sensitivity and subgroup analyses, and adjustments for covariates were applied. Missing outcomes data were censored at last contact.

patients with ALGS = test: Predictors of 6-year EFS and TFS in maralixibat-treated patients from three long-term clinical trials
Method: MRX-treated ALGS patients from 3 long-term clinical trials were followed for development of clinically significant events (LTx, surgical biliary diversion [SBD], hepatic decompensation [ascites requiring therapy and variceal bleeding], and death) for up to 6 yrs. TFS (LTx and death only) was also assessed. Those who were on MRX 48 weeks from the first dose and had lab results at 48 weeks were included in this analysis. Variables considered in the model included: liver biochemistries, platelets, pruritus (as assessed by ItchRO(Obs) 0¬4 scale), total serum bile acids (sBA), and age. Goodness of fit was assessed using Harrell's concordance statistic (C-statistic). Cutoffs were determined via a grid search. P-values are from a log-rank test.
Patients (N=76) with ALGS aged 14-207 months with moderate-to-severe pruritus were included in this analysis. Maralixibat-treated patients with ALGS from three long-term clinical trials (ClinicalTrials.gov ID: NCT02047318; ClinicalTrials.gov ID: NCT02160782; ClinicalTrials.gov ID: NCT02117713) were followed for development of first clinically significant event (LT, surgical biliary diversion, hepatic decompensation [ascites requiring therapy and variceal bleeding], or death) for up to six years. TFS (LT and death only) was also assessed. Patients who were on maralixibat 48 weeks from the first dose and had lab results at 48 weeks were included in this analysis.
Variables considered in the model included: liver biochemistries, platelets, pruritus (as assessed by Itch-Reported Outcome [Observer] [ItchRO(Obs)] 0-4 scale), total sBA, and age at initiation. These were explored at baseline, week 48, and change from baseline to week 48. Goodness of fit was assessed using Harrell's concordance statistic (C-statistic). Variables with a value ≥0.7 (indicating a good model) were selected for further analysis. Cutoffs for each variable were determined via a grid search across the range of values. Statistical comparisons between the cutoff groups were calculated using a log-rank test.

[2] = system: patients with PFIC due to BSEP deficiency (nontruncated BSEP mutation); test: INDIGO long-term study, sBA control after >4.5 years of MRX
From the text: Maralixibat (MRX) is an ileal bile acid transport (IBAT) inhibitor approved for the treatment of pruritus in patients with Alagille syndrome aged 1 year and older and under evaluation in patients with PFIC.

[3] = Week 48 sBA <200 μmol/L, n = 56
[4] = Week 48 sBA ≥200 μmol/L, n = 18
[5] = Week 48 total bilirubin <6.5 mg/dL, n = 52
[6] = Week 48 total bilirubin ≥6.5 mg/dL, n = 24
[7] = age at initiation of maralixibat <36 months, n = 21
[8] = age at initiation of maralixibat ≥36 months, n = 55
[9] = change from baseline to week 48 ItchRO(Obs) >1 pt reduction, n = 46
[10] = change from baseline to week 48 ItchRO(Obs) ≤1 pt reduction, n = 30
[11] = patients with sBA control, to Week 237, p<0.05

Q: How did the “crude 6-year EFS” value ([1]; MRX cohort, patients with ALGS (GALA control 50%)) turn out when CCCCC1(CCCC)CS(=O)(=O)c2ccc(N(C)C)cc2[C@@H](c2ccc(OCc3ccc(C[N+]45CCN(CC4)CC5)cc3)cc2)[C@H]1O [maralixibat] was run?
A: 73%

Q: And the “EFS hazard ratio (HR), MRX cohort vs GALA control” value ([1]; adjusted for age, sex, TB, ALT, 95% CI:0.189-0.491, p<0.0001)?
A: 0.305

Q: What about the “clinical event: LT” value (patients with ALGS; 76 patients) of the same compound?
A: 10 n

Q: What about the “clinical event: death” value (patients with ALGS; 76 patients) of the same compound?
A: 2 n

Q: What about the “clinical event: decompensation” value (patients with ALGS; 76 patients) of the same compound?
A: 3 n

Q: What about the “clinical event: surgical biliary diversion” value (patients with ALGS; 76 patients) of the same compound?
A: 1 n

Q: And the “patients who experienced clinical events” value (patients with ALGS; 76 patients, up to six years)?
A: Sixteen

Q: And the “6-year EFS” value (patients with ALGS; [3])?
A: 6-year EFS: 85%

Q: And the “6-year TFS” value (patients with ALGS; [3])?
A: 6-year TFS: 90%

Q: What about the “6-year EFS” value (patients with ALGS; [4]) of the same compound?
A: 6-year EFS: 49%

Q: What about the “6-year TFS” value (patients with ALGS; [4]) of the same compound?
A: 6-year TFS: 49%

Q: What about the “6-year EFS” value (patients with ALGS; [5]) of the same compound?
A: 6-year EFS: 90%

Q: What about the “6-year TFS” value (patients with ALGS; [5]) of the same compound?
A: 6-year TFS: 94%

Q: And the “6-year EFS” value (patients with ALGS; [6])?
A: 6-year EFS: 43%

Q: And the “6-year TFS” value (patients with ALGS; [6])?
A: 6-year TFS: 42%

Q: What about the “6-year EFS” value (patients with ALGS; [7]) of the same compound?
A: 6-year EFS: 57%

Q: And the “6-year TFS” value (patients with ALGS; [7])?
A: 6-year TFS: 57%

Q: What about the “6-year EFS” value (patients with ALGS; [8]) of the same compound?
A: 6-year EFS: 83%

Q: And the “6-year TFS” value (patients with ALGS; [8])?
A: 6-year TFS: 87%

Q: And the “6-year EFS” value (patients with ALGS; [9])?
A: 6-year EFS: 88%

Q: And the “6-year TFS” value (patients with ALGS; [9])?
A: 6-year TFS: 93%

Q: What about the “6-year EFS” value (patients with ALGS; [10]) of the same compound?
A: 6-year EFS: 57%

Q: What about the “6-year TFS” value (patients with ALGS; [10]) of the same compound?
A: 6-year TFS: 57%

Q: And the “6-year EFS (%)” value (patients with ALGS; number of worse EFS predictor variables: 0)?
A: 89%

Q: What about the “6-year EFS (%)” value (patients with ALGS; number of worse EFS predictor variables: 1) of the same compound?
A: 89%

Q: What about the “6-year EFS (%)” value (patients with ALGS; number of worse EFS predictor variables: 2) of the same compound?
A: 86%

Q: And the “6-year EFS (%)” value (patients with ALGS; number of worse EFS predictor variables: 3)?
A: 29%

Q: What about the “6-year EFS (%)” value (patients with ALGS; number of worse EFS predictor variables: 4) of the same compound?
A: 33%

Q: And the “rate of 6-year EFS” value (patients with ALGS; patients with ≤2 predictors of worse EFS after 48 weeks of treatment)?
A: 88%

Q: What about the “rate of 6-year EFS” value (patients with ALGS; patients with ≥3 predictors of worse EFS after 48 weeks of treatment) of the same compound?
A: 31%

Q: What about the “listing for liver transplant” value ([2]; after >4.5 years of MRX, result in words) of the same compound?
A: No ongoing patients were listed for liver transplant

Q: What about the “long-term safety and tolerability” value ([2]; most frequent TEAEs mild to moderate, result in words) of the same compound?
A: safe and well tolerated

Q: And the “patients who achieved sBA control and remained on-study as of Week 237” value ([2]; of n=19 with nontruncated BSEP mutation, sBA threshold ≤100 μmol/L)?
A: 7 patients

Q: What about the pruritus ([2]; p<0.001, result in words) of the same compound?
A: improved significantly

Q: What about the “Growth (height z-score)” value ([2]; p<0.01, result in words) of the same compound?
A: improved significantly

Q: And the native liver survival ([2]; patients who achieved control of sBA during MRX treatment)?
A: > 4.5 years

Q: What about the “mean sBA value” ([2]; patients with sBA control, Week 237, vs. 299.6 μmol/L at baseline) of the same compound?
A: 44.2 (38.8) μmol/L

Q: And the “mean direct bilirubin value” ([2]; patients with sBA control, Week 237, vs. 0.6 at BL)?
A: 0.1 mg/dL

Q: And the “mean total bilirubin value” ([2]; patients with sBA control, Week 237, vs. 0.8 at BL)?
A: 0.7 mg/dL

Q: What about the “mean ALT value” ([2]; patients with sBA control, Week 237, vs. 57.9 at BL) of the same compound?
A: 16.7 U/L

Q: What about the “mean AST value” ([2]; patients with sBA control, Week 237, vs. 62.1 at BL) of the same compound?
A: 26.7 U/L

Q: What about the “Mean (SE) sBA reduction” value [2, 11] of the same compound?
A: 234.4 (80.5) μmol/L

Q: What about the “Mean reduction in ALT” value [2, 11] of the same compound?
A: 41.1 (14.3) U/L

Q: And the “Mean reduction in AST” value [2, 11]?
A: 35.4 (11.5) U/L

Q: What about the “Mean reduction in direct bilirubin” value ([2]; patients with sBA control, to Week 237, p=0.13) of the same compound?
A: 0.4 (0.2) mg/dL

Q: And the “Mean reduction in total bilirubin” value ([2]; patients with sBA control, to Week 237, p=0.8)?
A: 0.1 (0.3) mg/dL

Q: And the “bilirubin in those with abnormal bilirubin” value ([2]; result in words)?
A: normalized
